Experimental data taken from PubChem BioAssay AID194 (DTP/NCI, 2004).
Where “and” joins values, the source holds several entries; their conditions need not be identical. Identical values can stand only once. Inconclusive results are not listed.

Tested on: BDF1 mice, B16 melanoma s.c., survival/tumor T/C
Assay: NCI In Vivo Anticancer Drug Screen. Data for tumor model B16 Melanoma (subcutaneous) in B6D2F1 (BDF1) mice
Protocol: The antitumor activity of compounds was measured in mice bearing transplantable tumors. Survival or tumor size were measured and the results are expressed as the measurement made in the treated group (T) divided by the measurement made in the vehicle treated control group (C). The tumor model used in this assay is B16 Melanoma (subcutaneous) in B6D2F1 (BDF1) mice

[1] = endpoint: median survival time, dose: 3.0 mg/kg/injection, schedule: Q01DX009 (ip), vehicle: saline, higher = longer survival

Cc1c(N)nc([C@H](CC(N)=O)NC[C@H](N)C(N)=O)nc1C(=O)N[C@H](C(=O)N[C@H](C)[C@@H](O)[C@H](C)C(=O)N[C@H](C(=O)NCCc1nc(-c2nc(C(=O)NCCC[S+](C)C)cs2)cs1)[C@@H](C)O)C(OC1OC(CO)C(O)C(O)C1OC1OC(CO)C(O)C(OC(N)=O)C1O)c1cnc[nH]1 (some centres not stated)
T/C (endpoint: median survival time, dose: 1.0 mg/kg/injection, schedule: Q01DX009 (ip), vehicle: saline, higher = longer survival): 120 % of control
T/C (endpoint: median survival time, dose: 2.0 mg/kg/injection, schedule: Q01DX009 (ip), vehicle: water, higher = longer survival): 152 % of control and 160 % of control
T/C (endpoint: median survival time, dose: 3.0 mg/kg/injection, schedule: Q01DX005 (ip), vehicle: water, higher = longer survival): 118 % of control
T/C [1]: 119 % of control
T/C (endpoint: median survival time, dose: 3.0 mg/kg/injection, schedule: Q01DX009 (ip), vehicle: water, higher = longer survival): 96 % of control
T/C (endpoint: median survival time, dose: 3.12 mg/kg/injection, schedule: Q01DX009 (ip), vehicle: Klucel (hydroxypropylcellulose) (HPC), higher = longer survival): 171 % of control
T/C (endpoint: median survival time, dose: 4.0 mg/kg/injection, schedule: Q01DX009 (ip), vehicle: water, higher = longer survival): 165 % of control and 179 % of control
T/C (endpoint: median survival time, dose: 6.0 mg/kg/injection, schedule: Q01DX005 (ip), vehicle: water, higher = longer survival): 118 % of control
T/C (endpoint: median survival time, dose: 6.0 mg/kg/injection, schedule: Q01DX009 (ip), vehicle: saline, higher = longer survival): 121 % of control
T/C (endpoint: median survival time, dose: 6.0 mg/kg/injection, schedule: Q01DX009 (ip), vehicle: water, higher = longer survival): 109 % of control
T/C (endpoint: median survival time, dose: 6.25 mg/kg/injection, schedule: Q01DX009 (ip), vehicle: Klucel (hydroxypropylcellulose) (HPC), higher = longer survival): 175 % of control
T/C (endpoint: median survival time, dose: 8.0 mg/kg/injection, schedule: Q01DX009 (ip), vehicle: water, higher = longer survival): 162 % of control and 185 % of control
T/C (endpoint: median survival time, dose: 12.0 mg/kg/injection, schedule: Q01DX009 (ip), vehicle: water, higher = longer survival): 112 % of control
T/C (endpoint: median survival time, dose: 12.5 mg/kg/injection, schedule: Q01DX009 (ip), vehicle: Klucel (hydroxypropylcellulose) (HPC), higher = longer survival): 168 % of control
T/C (endpoint: median survival time, dose: 16.0 mg/kg/injection, schedule: Q01DX009 (ip), vehicle: water, higher = longer survival): 158 % of control (2×) and 159 % of control
T/C (endpoint: median survival time, dose: 16.0 mg/kg/injection, schedule: Q01DX010 (ip), vehicle: water, higher = longer survival): 93 % of control
T/C (endpoint: median survival time, dose: 20.0 mg/kg/injection, schedule: Q01DX009 (ip), vehicle: saline, higher = longer survival): 161 % of control
T/C (endpoint: median survival time, dose: 24.0 mg/kg/injection, schedule: Q01DX009 (ip), vehicle: saline, higher = longer survival): 112 % of control
T/C (endpoint: median survival time, dose: 25.0 mg/kg/injection, schedule: Q01DX009 (ip), vehicle: Klucel (hydroxypropylcellulose) (HPC), higher = longer survival): 100 % of control
T/C (endpoint: median survival time, dose: 32.0 mg/kg/injection, schedule: Q01DX009 (ip), vehicle: water, higher = longer survival): 171 % of control
T/C (endpoint: median tumor weight (est.), dose: 8.0 mg/kg/injection, schedule: Q01DX009 (ip), vehicle: water, higher = larger tumour): 47 % of control
T/C (endpoint: median tumor weight (est.), dose: 12.0 mg/kg/injection, schedule: Q01DX009 (ip), vehicle: saline, higher = larger tumour): 22 % of control and 43 % of control
T/C (endpoint: median tumor weight (est.), dose: 16.0 mg/kg/injection, schedule: Q01DX009 (ip), vehicle: water, higher = larger tumour): 33 % of control
T/C (endpoint: median tumor weight (est.), dose: 24.0 mg/kg/injection, schedule: Q01DX009 (ip), vehicle: saline, higher = larger tumour): 18 % of control and 27 % of control

CCOc1ccc2nc(S(N)(=O)=O)sc2c1
T/C (endpoint: median survival time, dose: 3.75 mg/kg/injection, schedule: Q01DX009 (ip), vehicle: saline, higher = longer survival): 121 % of control
T/C (endpoint: median survival time, dose: 7.5 mg/kg/injection, schedule: Q01DX009 (ip), vehicle: saline, higher = longer survival): 123 % of control
T/C (endpoint: median survival time, dose: 15.0 mg/kg/injection, schedule: Q01DX009 (ip), vehicle: saline, higher = longer survival): 121 % of control
T/C (endpoint: median survival time, dose: 30.0 mg/kg/injection, schedule: Q01DX009 (ip), vehicle: saline, higher = longer survival): 95 % of control

COC(=O)Nc1nc2ccc(C(=O)c3cccs3)cc2[nH]1
T/C (endpoint: median survival time, dose: 50.0 mg/kg/injection, schedule: Q04DX002 (iv), vehicle: other, higher = longer survival): 110 % of control
T/C (endpoint: median survival time, dose: 50.0 mg/kg/injection, schedule: Q05DX005 (ip), vehicle: other, higher = longer survival): 104 % of control
T/C (endpoint: median survival time, dose: 60.0 mg/kg/injection, schedule: Q05DX005 (ip), vehicle: other, higher = longer survival): 105 % of control
T/C (endpoint: median survival time, dose: 70.0 mg/kg/injection, schedule: Q05DX005 (ip), vehicle: other, higher = longer survival): 103 % of control

COc1cc([C@@H]2c3cc4c(cc3[C@@H](OC3OC5COC(C)OC5C(O)C3O)[C@H]3COC(=O)[C@H]23)OCO4)cc(OC)c1O (some centres not stated)
T/C (endpoint: median survival time, dose: 2.0 mg/kg/injection, schedule: Q01DX009 (ip), vehicle: saline, higher = longer survival): 169 % of control
T/C [1]: 117 % of control
T/C (endpoint: median survival time, dose: 34.0 mg/kg/injection, schedule: Q01DX001 (ip), vehicle: saline, higher = longer survival): 117 % of control
T/C (endpoint: median survival time, dose: 40.0 mg/kg/injection, schedule: Q04DX003 (ip), vehicle: saline, higher = longer survival): 156 % of control
T/C (endpoint: median survival time, dose: 50.0 mg/kg/injection, schedule: Q01DX001 (ip), vehicle: saline, higher = longer survival): 117 % of control
